Assays:
S1S3 [1] = target: T1, S1S3 (Homo sapiens, UniProt Q3T906, H959F); assay: PTase activity assay, UDP-[3H]GlcNAc; format: biochemical; conditions: H279 = H959 of full-length hPTase
T1 construct: gene GNPTAB; soluble truncation, no TM domains; S1 (233 aa) replaced by 29-aa Dictyostelium discoideum PTase linker; Notch1 to S1P site deleted, GGSGG linker; melittin signal, N-HA, C-HPC4; secreted from T. ni cells; single chain, dimer

[2] = target: T2, hPTase-αβ (soluble full-length human GlcNAc-1-phosphotransferase) (Homo sapiens, UniProt Q3T906); assay: cryo-EM structure, […] Å; format: binding; conditions: 10 mM UDP-GlcNAc, 10 mM MnCl2, 6 h at 4 °C; donor site in the catalytic pocket with two Mn2+
T2 construct: gene GNPTAB; soluble secreted form of the alpha/beta precursor, cut by site-1 protease at K928/D929; no gamma subunit; dimer
T2 sequence (Q3T906 44-928 limits assumed): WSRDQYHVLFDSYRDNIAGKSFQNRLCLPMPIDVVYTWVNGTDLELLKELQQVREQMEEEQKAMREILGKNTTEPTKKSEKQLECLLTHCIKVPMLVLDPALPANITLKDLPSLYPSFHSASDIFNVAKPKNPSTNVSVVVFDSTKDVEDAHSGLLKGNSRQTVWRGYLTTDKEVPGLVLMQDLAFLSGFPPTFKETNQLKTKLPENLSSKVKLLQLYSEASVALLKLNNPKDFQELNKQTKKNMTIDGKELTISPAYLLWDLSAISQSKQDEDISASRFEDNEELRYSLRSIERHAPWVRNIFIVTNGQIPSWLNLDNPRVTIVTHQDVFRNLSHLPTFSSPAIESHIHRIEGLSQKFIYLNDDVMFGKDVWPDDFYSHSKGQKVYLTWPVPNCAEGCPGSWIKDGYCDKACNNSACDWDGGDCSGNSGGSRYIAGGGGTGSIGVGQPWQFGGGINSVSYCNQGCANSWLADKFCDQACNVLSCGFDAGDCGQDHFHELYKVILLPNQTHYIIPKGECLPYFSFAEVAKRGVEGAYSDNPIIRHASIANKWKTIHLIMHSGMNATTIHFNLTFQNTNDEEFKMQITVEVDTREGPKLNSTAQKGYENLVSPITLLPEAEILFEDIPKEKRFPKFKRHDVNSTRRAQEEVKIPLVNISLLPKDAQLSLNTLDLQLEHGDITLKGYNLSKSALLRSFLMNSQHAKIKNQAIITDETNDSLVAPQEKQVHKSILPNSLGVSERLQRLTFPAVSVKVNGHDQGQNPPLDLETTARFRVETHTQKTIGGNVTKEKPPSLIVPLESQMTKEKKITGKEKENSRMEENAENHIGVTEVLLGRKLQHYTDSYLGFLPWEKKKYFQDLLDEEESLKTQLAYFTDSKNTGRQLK
T2 sequence (Q3T906 929-1214 limits assumed): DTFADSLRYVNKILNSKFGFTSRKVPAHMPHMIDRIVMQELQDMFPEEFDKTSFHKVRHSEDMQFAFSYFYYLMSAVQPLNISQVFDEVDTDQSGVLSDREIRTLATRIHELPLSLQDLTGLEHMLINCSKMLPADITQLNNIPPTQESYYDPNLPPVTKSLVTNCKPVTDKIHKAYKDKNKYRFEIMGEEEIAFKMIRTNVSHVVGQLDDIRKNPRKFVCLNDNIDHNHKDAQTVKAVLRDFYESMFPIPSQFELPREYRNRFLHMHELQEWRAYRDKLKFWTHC

Dm PTase = target: T3, Dm PTase (Drosophila melanogaster, UniProt A1Z7S7); assay: PTase activity assay, UDP-[3H]GlcNAc; format: biochemical; conditions: donor, labelled compound; acceptor 100 mM α-MM
T3 construct: gene Gnptab; soluble, without N- and C-terminal TM domains and cytosolic tails; melittin signal, N-HA, C-HPC4; secreted from T. ni cells; single chain; H375 and F378 correspond to human H956 and H959
T3 sequence (A1Z7S7 47-630 limits assumed): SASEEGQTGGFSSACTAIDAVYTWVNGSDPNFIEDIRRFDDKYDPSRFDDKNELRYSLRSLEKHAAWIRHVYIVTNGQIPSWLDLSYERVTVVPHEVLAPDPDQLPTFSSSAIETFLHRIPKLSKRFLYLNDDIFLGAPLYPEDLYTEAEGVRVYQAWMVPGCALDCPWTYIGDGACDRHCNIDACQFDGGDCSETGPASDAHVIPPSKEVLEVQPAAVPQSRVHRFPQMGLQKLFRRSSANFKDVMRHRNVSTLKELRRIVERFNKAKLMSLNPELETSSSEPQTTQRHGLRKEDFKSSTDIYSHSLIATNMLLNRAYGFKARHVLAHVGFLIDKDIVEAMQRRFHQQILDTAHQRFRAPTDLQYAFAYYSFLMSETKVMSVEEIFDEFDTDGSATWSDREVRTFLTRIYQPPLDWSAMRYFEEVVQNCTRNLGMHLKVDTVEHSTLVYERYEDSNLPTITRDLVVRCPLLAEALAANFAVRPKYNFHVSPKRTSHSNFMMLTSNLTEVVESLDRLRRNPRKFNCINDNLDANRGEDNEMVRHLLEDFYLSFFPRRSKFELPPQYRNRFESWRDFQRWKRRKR

S1S3 [3] = target: T4, S1S3 (Homo sapiens, UniProt Q3T906); assay: UDP-[3H]GlcNAc radiolabel transfer assay, QAE-Sephadex; format: biochemical; conditions: saturating UDP-[3H]GlcNAc; Mn2+ and Mg2+, pH 7.4, 37 °C (general assay); mean of two assays
T4 construct: gene GNPTAB; soluble truncation, no TM domains; S1 (233 aa) replaced by 29-aa Dictyostelium discoideum PTase linker; Notch1 to S1P site deleted, GGSGG linker; melittin signal, N-HA, C-HPC4; secreted from T. ni cells; single chain, dimer

[4] = target: soluble S1S3, truncated hyperactive variant of human GlcNAc-1-phosphotransferase (PTase) αβ lacking both transmembrane domains and cytosolic tails (human | Dictyostelium discoideum); assay: cryo-EM structure; single-particle cryo-EM of purified soluble S1S3 at 0.8 mg/ml; 3.4 Å
[5] = substrate: CO[C@H]1O[C@H](CO)[C@@H](O)[C@H](O)[C@@H]1O; assay: UDP-[3H]GlcNAc radiolabel transfer assay, QAE-Sephadex; format: biochemical, Homo sapiens; conditions: saturating UDP-[3H]GlcNAc, Mn2+ and Mg2+, pH 7.4, 37 °C (general assay), mean of two assays

T1 sequence (Q3T906 929-1214 H959F limits assumed, one chain of several): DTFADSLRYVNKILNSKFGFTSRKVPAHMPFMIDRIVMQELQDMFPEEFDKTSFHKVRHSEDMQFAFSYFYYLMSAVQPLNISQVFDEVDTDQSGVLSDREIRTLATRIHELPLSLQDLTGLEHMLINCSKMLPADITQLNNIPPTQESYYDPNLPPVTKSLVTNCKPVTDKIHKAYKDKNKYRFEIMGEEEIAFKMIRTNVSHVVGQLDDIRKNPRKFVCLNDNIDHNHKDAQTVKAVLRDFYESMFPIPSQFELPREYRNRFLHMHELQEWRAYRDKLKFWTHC

For `CC(=O)N[C@H]1[C@H](O[C@H]2[C@H](O)[C@@H](NC(C)=O)C(O)O[C@@H]2CO)O[C@H](CO)[C@@H](O[C@@H]2O[C@H](CO[C@H]3O[C@H](CO[C@H]4O[C@H](CO)[C@@H](O)[C@H](O)[C@@H]4O[C@H]4O[C@H](CO)[C@@H](O)[C@H](O)[C@@H]4O)[C@@H](O)[C@H](O[C@H]4O[C@H](CO)[C@@H](O)[C@H](O)[C@@H]4O[C@H]4O[C@H](CO)[C@@H](O)[C@H](O)[C@@H]4O)[C@@H]3O)[C@@H](O)[C@H](O[C@H]3O[C@H](CO)[C@@H](O)[C@H](O)[C@@H]3O[C@H]3O[C@H](CO)[C@@H](O)[C@H](O)[C@@H]3O[C@H]3O[C@H](CO)[C@@H](O)[C@H](O)[C@@H]3O)[C@@H]2O)[C@@H]1O` (some centres unmarked) [Man-9, Man9GlcNAc2], the “PTase activity assay, UDP-[3H]GlcNAc” value (S1S3 [1]; 0.34 mM Man-9) was “The His-279-Phe mutation caused a significant decrease in activity toward the three acceptors”.

For `CC(=O)N[C@H]1[C@@H](OP(=O)(O)OP(=O)(O)OC[C@H]2O[C@@H](n3ccc(=O)[nH]c3=O)[C@H](O)[C@@H]2O)O[C@H](CO)[C@@H](O)[C@@H]1O` [UDP-GlcNAc], the “cryo-EM structure, 2.9 Å” value [2] was “we resolved the cryo-EM structure of hPTase in the presence of the nucleotide donor sugar” and the “PTase activity assay, UDP-[3H]GlcNAc” value (Dm PTase) was “Dm PTase is capable of using UDP-GlcNAc as a nucleotide sugar donor”.

For `OC[C@H]1O[C@H](O[C@@H]2C(O)O[C@H](CO)[C@@H](O)[C@@H]2O)[C@@H](O)[C@@H](O)[C@@H]1O` (stereo partly drawn) [mannobiose, 2-α-mannobiose], the Km (S1S3 [3]) was 53.6 mM.

`CO[C@H]1O[C@H](CO)[C@@H](O)[C@H](O)[C@@H]1O` [α-MM, methyl α-D-mannopyranoside] was tested, and the “PTase activity assay, UDP-[3H]GlcNAc” value (S1S3 [1]; 100 mM α-MM) was “The His-279-Phe mutation caused a significant decrease in activity toward the three acceptors”.

With “soluble S1S3, truncated hyperactive variant of human GlcNAc-1-phosphotransferase (PTase) αβ lacking both transmembrane domains and cytosolic tails (enzyme)” the stoichiometry N [4] was 2.

B1: hPTase-αβ (soluble full-length human GlcNAc-1-phosphotransferase) (Homo sapiens) (protein)
chain 1: T2 sequence (Q3T906 44-928 limits assumed)
chain 2: T2 sequence (Q3T906 929-1214 limits assumed)
notes: soluble secreted form of the alpha/beta precursor, cut by site-1 protease at K928/D929; no gamma subunit; dimer
For B1, the Km [5] was 57,100 μM and the kcat [5] was 0.153 s⁻¹.
